Test: GoMiner gene ontology analysis of differentially regulated genes
Design: species or system human
[1] = Cellular component: Chromosome, GO 0005694, Total 108
[2] = Cellular component: Cytoplasm, GO 0005737, Total 1705
[3] = Cellular component: Cytoplasmic vesicle, GO 0016023, Total 59
[4] = Cellular component: Cytoskeleton, GO 0005856, Total 334
[5] = Cellular component: Cytosol, GO 0005829, Total 176
[6] = Cellular component: Endoplasmic reticulum, GO 0005783, Total 244
[7] = Cellular component: Extracellular, GO 0005576, Total 586
[8] = Cellular component: Membrane, GO 0016020, Total 1976
[9] = Cellular component: Mitochondrion, GO 0005739, Total 315
[10] = Cellular component: Nucleus, GO 0005634, Total 1483
[11] = Cellular component: Ribosome, GO 0005840, Total 61
[12] = Cellular component: actin cytoskeleton, GO 0015629, Total 120
[13] = Cellular component: endomembrane system, GO 0012505, Total 112
[14] = Cellular component: extracellular matrix, GO 0005578, Total 181
[15] = Cellular component: extracellular space, GO 0005615, Total 228
[16] = Cellular component: integral to membrane, GO 0016021, Total 1549
[17] = Cellular component: microtubule cytoskeleton, GO 0015630, Total 78
[18] = Cellular component: mitochondrial membrane, GO 0005740, Total 75
[19] = Cellular component: nuclear membrane, GO 0005635, Total 50
[20] = Cellular component: nucleolus, GO 0005730, Total 39
[21] = Cellular component: nucleoplasm, GO 0005654, Total 91
[22] = Cellular component: plasma membrane, GO 0005886, Total 1041
[23] = Molecular function: Apoptosis regulator activity, GO 0016329, Total 44
[24] = Molecular function: Binding, GO 0005488, Total 3368
[25] = Molecular function: Catalytic activity, GO 0003824, Total 2129
[26] = Molecular function: Cell adhesion molecule activity, GO 0005194, Total 209
[27] = Molecular function: Defense/immunity protein activity, GO 0003793, Total 36
[28] = Molecular function: Enzyme regulator activity, GO 0030234, Total 306
[29] = Molecular function: Motor activity, GO 0003774, Total 61
[30] = Molecular function: Obsolete molecular function, GO 0008369, Total 419
[31] = Molecular function: Signal transducer activity, GO 0004871, Total 1157
[32] = Molecular function: Structural molecule activity, GO 0005198, Total 333
[33] = Molecular function: Transcription regulator activity, GO 0030528, Total 630
[34] = Molecular function: Translation regulator activity, GO 0045182, Total 43
[35] = Molecular function: Transporter activity, GO 0005215, Total 822
[36] = Molecular function: carrier activity, GO 0005386, Total 239
[37] = Molecular function: electron transporter activity, GO 0005489, Total 138
[38] = Molecular function: enzyme inhibitor activity, GO 0004857, Total 132
[39] = Molecular function: extracellular matrix structural constituent, GO 0005201, Total 60
[40] = Molecular function: hydrolase activity, GO 0016787, Total 917
[41] = Molecular function: kinase activity, GO 0016301, Total 409
[42] = Molecular function: lipid binding, GO 0008289, Total 94
[43] = Molecular function: metal ion binding, GO 0046872, Total 631
[44] = Molecular function: nucleic acid binding, GO 0003676, Total 1232
[45] = Molecular function: nucleotide binding, GO 0000166, Total 763
[46] = Molecular function: oxidoreductase activity, GO 0016491, Total 320
[47] = Molecular function: protein binding, GO 0005515, Total 814
[48] = Molecular function: receptor activity, GO 0004872, Total 678
[49] = Molecular function: receptor binding (under Binding), GO 0005102, Total 301
[50] = Molecular function: receptor binding (under Signal transducer activity), GO 0005102, Total 301
[51] = Molecular function: receptor signaling protein activity, GO 0005057, Total 127
[52] = Molecular function: structural constituent of cytoskeleton, GO 0005200, Total 62
[53] = Molecular function: transcription factor activity, GO 0003700, Total 472
[54] = Molecular function: transferase activity, GO 0016740, Total 706

## Nc1ncn([C@H]2C[C@H](O)[C@@H](CO)O2)c(=O)n1 [5-aza-dC, 5-aza-2′-deoxycytidine]
Cellular component: Cellular—component unknown, GO 0008372, Total 266
  5-aza-dC Up: 8
[1]
  5-aza-dC Down: 0
  5-aza-dC Up: 10
[2]
  5-aza-dC Down: 9
  5-aza-dC Up: 30
[3]
  5-aza-dC Down: 0
  5-aza-dC Up: 2
[4]
  5-aza-dC Down: 1
  5-aza-dC Up: 4
[5]
  5-aza-dC Down: 1
  5-aza-dC Up: 2
[6]
  5-aza-dC Down: 1
  5-aza-dC Up: 4
[7]
  5-aza-dC Down: 1
  5-aza-dC Up: 23
[8]
  5-aza-dC Down: 6
  5-aza-dC Up: 24
[9]
  5-aza-dC Down: 2
  5-aza-dC Up: 3
[10]
  5-aza-dC Down: 7
  5-aza-dC Up: 44
[11]
  5-aza-dC Down: 1
  5-aza-dC Up: 1
[12]
  5-aza-dC Down: 0
  5-aza-dC Up: 0
[13]
  5-aza-dC Down: 0
  5-aza-dC Up: 1
[14]
  5-aza-dC Down: 0
  5-aza-dC Up: 4
[15]
  5-aza-dC Down: 0
  5-aza-dC Up: 13
[16]
  5-aza-dC Down: 5
  5-aza-dC Up: 18
[17]
  5-aza-dC Down: 1
  5-aza-dC Up: 0
[18]
  5-aza-dC Down: 0
  5-aza-dC Up: 0
[19]
  5-aza-dC Down: 0
  5-aza-dC Up: 0
[20]
  5-aza-dC Down: 0
  5-aza-dC Up: 1
[21]
  5-aza-dC Down: 0
  5-aza-dC Up: 5
[22]
  5-aza-dC Down: 3
  5-aza-dC Up: 13
[23]
  5-aza-dC Down: 0
  5-aza-dC Up: 4
[24]
  5-aza-dC Down: 9
  5-aza-dC Up: 83
[25]
  5-aza-dC Down: 12
  5-aza-dC Up: 43
[26]
  5-aza-dC Down: 0
  5-aza-dC Up: 3
[27]
  5-aza-dC Down: 0
  5-aza-dC Up: 1
[28]
  5-aza-dC Down: 5
  5-aza-dC Up: 6
[29]
  5-aza-dC Down: 0
  5-aza-dC Up: 0
[30]
  5-aza-dC Down: 1
  5-aza-dC Up: 12
[31]
  5-aza-dC Down: 5
  5-aza-dC Up: 23
[32]
  5-aza-dC Down: 3
  5-aza-dC Up: 4
[33]
  5-aza-dC Down: 0
  5-aza-dC Up: 18
[34]
  5-aza-dC Down: 1
  5-aza-dC Up: 1
[35]
  5-aza-dC Down: 1
  5-aza-dC Up: 14
[36]
  5-aza-dC Down: 1
  5-aza-dC Up: 3
[37]
  5-aza-dC Down: 1
  5-aza-dC Up: 5
[38]
  5-aza-dC Down: 2
  5-aza-dC Up: 4
[39]
  5-aza-dC Down: 0
  5-aza-dC Up: 1
[40]
  5-aza-dC Down: 4
  5-aza-dC Up: 25
[41]
  5-aza-dC Down: 3
  5-aza-dC Up: 2
[42]
  5-aza-dC Down: 0
  5-aza-dC Up: 1
[43]
  5-aza-dC Down: 0
  5-aza-dC Up: 12
[44]
  5-aza-dC Down: 6
  5-aza-dC Up: 36
[45]
  5-aza-dC Down: 3
  5-aza-dC Up: 10
[46]
  5-aza-dC Down: 2
  5-aza-dC Up: 6
[47]
  5-aza-dC Down: 1
  5-aza-dC Up: 26
[48]
  5-aza-dC Down: 4
  5-aza-dC Up: 11
[49]
  5-aza-dC Down: 1
  5-aza-dC Up: 14
[50]
  5-aza-dC Down: 1
  5-aza-dC Up: 14
[51]
  5-aza-dC Down: 0
  5-aza-dC Up: 0
[52]
  5-aza-dC Down: 0
  5-aza-dC Up: 1
[53]
  5-aza-dC Down: 0
  5-aza-dC Up: 12
[54]
  5-aza-dC Down: 5
  5-aza-dC Up: 8

Reference: patent US20050250137A1, “Molecular targets of cancer and aging” (priority 2002, published 2005)
